Experiments:
Assay type in all cases: biochemical
PIP4K2B = target: T1, PIP4K2B (Homo sapiens, UniProt P78356); assay: Trans-FI P kinase assay PIP4K2B (PIP4KtypeIIB inhibition assay); details: compounds listed under IC50 bin headings; 100 uM GTP; read-out: Trans-FI P kinase assays: PIP4K2B IC50
T1 construct: made in house; host or cells: E. coli
T1 sequence (P78356 1-416): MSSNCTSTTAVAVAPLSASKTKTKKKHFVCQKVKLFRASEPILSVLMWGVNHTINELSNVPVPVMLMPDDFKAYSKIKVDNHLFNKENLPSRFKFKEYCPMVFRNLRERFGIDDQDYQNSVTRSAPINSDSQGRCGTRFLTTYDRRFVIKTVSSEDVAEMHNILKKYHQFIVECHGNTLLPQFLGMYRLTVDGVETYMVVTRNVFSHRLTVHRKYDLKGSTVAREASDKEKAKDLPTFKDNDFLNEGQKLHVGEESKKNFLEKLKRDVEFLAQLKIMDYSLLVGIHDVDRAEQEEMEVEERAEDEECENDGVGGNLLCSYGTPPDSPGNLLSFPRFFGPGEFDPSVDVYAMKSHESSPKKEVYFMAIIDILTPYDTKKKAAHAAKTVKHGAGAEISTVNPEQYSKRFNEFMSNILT
Procedure, shortened: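 GST-tagged human PIP4K2B (5 nM, E. coli-expressed) preincubated 1 h at 27 C with compound (top 4.8 uM, 5% DMSO), then reacted 2 h with 100 uM GTP and 80 uM PI5P/DOPE vesicles in HEPES pH 7.3, MgCl2, Triton X-100. GDP detected by Transcreener FI fluorescence via calibration curve; IC50 from % activity vs log[inhibitor].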

PIP4K 2A [1] = target: T2, PIP4K 2A (Homo sapiens, UniProt P48426); assay: Kinase Assay PIP4K2 A (PIP4KtypeIIA inhibition assay); parameters: made in house; host or cells: E. coli; details: compounds listed under IC50 bin headings
T2 sequence (P48426 1-406): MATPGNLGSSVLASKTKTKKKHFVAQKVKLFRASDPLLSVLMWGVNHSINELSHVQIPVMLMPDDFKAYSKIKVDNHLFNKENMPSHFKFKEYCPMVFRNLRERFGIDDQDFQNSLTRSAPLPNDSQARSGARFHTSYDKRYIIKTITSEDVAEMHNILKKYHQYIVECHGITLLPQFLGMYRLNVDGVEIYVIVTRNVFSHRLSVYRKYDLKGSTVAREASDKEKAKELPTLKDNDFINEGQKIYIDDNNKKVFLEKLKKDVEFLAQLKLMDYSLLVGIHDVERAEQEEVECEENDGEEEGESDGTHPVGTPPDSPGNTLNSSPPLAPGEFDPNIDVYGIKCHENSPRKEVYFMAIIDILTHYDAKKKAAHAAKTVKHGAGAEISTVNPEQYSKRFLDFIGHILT
Procedure, shortened: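 GST-tagged enzyme from E. coli at 0.5 nM final was preincubated with compound for 1 h at 27 C, then reacted with 10 uM ATP, 80 uM PI5P and DOPE carrier in 50 mM HEPES pH 7.3, 5% DMSO. After 1 h, ADP was measured by ADP-Glo luminescence against a calibration curve. IC50 was fitted from % residual activity.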

PIP4K 2A [2] = target: T2, PIP4K 2A; assay: ADP-glo kinase assay PIP4K 2A; parameters: 4 nM PIP4K2A (full length protein, SignalChem); purchased SignalChem; details: compounds listed under IC50 bin headings
Procedure, shortened: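 Full-length PIP4K2A was pre-incubated 15 min at RT with compound in 20 mM MOPS pH 7.2, 25 mM MgCl2, 0.005% Tween 20. The enzyme mix held 4 nM kinase and 100 μM PI(5)P diC8, and ATP was added from a 60 μM solution. After 1 h at RT, ADP-Glo luminescence gave % inhibition versus DMSO, fitted to IC50 over 10 threefold dilutions.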

Row | Compound | IC50 (PIP4K2B) | IC50 (PIP4K 2A [1]) | IC50 (PIP4K 2A [2])
1 | O=C1CCCN1c1ccc2c(c1)OCc1cc(Nc3cnc4c(c3)N(S(=O)(=O)C3CC3)CCO4)ncc1-2 [Example 74, 1-(3-((1-(cyclopropylsulfonyl)-2,3-dihydro-1H-pyrido[2,3-b][1,4]oxazin-7-yl)amino)-5H-chromeno[4,3-c]pyridin-8-yl)pyrrolidin-2-one] | 1 to 10 nM | ≤ 1 nM | 1 to 10 nM
2 | O=C1CCCN1c1ccc2c(c1)OCc1cc(Nc3cnc4c(c3)N3C(=O)CC[C@H]3CO4)ncc1-2 [Example 75, (S)-2-((8-(2-oxopyrrolidin-1-yl)-5H-chromeno[4,3-c]pyridin-3-yl)amino)-6,6a,7,8-tetrahydro-9H-pyrido[2,3-b]pyrrolo[1,2-d][1,4]oxazin-9-one] | 1 to 10 nM | ≤ 1 nM | ≤ 1 nM
3 | O=C1CCCN1c1ccc2c(c1)OCc1cc(Nc3cnc4c(c3)N(C(=O)C3CC3)CCO4)ncc1-2 [Example 76, 1-(3-((1-(cyclopropanecarbonyl)-2,3-dihydro-1H-pyrido[2,3-b][1,4]oxazin-7-yl)amino)-5H-chromeno[4,3-c]pyridin-8-yl)pyrrolidin-2-one] | 1 to 10 nM | ≤ 1 nM | ≤ 1 nM
4 | COC(=O)N1CCOc2ncc(Nc3cc4c(cn3)-c3ccc(N5CCCC5=O)cc3OC4)cc21 [Example 77, methyl 7-((8-(2-oxopyrrolidin-1-yl)-5H-chromeno[4,3-c]pyridin-3-yl)amino)-2,3-dihydro-1H-pyrido[2,3-b][1,4]oxazine-1-carboxylate] | 1 to 10 nM | ≤ 1 nM | ≤ 1 nM
5 | CS(=O)(=O)N1CCOc2ncc(Nc3cc4c(cn3)-c3ccc(N5CCCC5=O)cc3OC4)cc21 [Example 78, 1-(3-((1-(methylsulfonyl)-2,3-dihydro-1H-pyrido[2,3-b][1,4]oxazin-7-yl)amino)-5H-chromeno[4,3-c]pyridin-8-yl)pyrrolidin-2-one] | 1 to 10 nM | ≤ 1 nM | ≤ 1 nM
6 | CC(C)S(=O)(=O)N1CCOc2ncc(Nc3cc4c(cn3)-c3ccc(N5CCCC5=O)cc3OC4)cc21 [Example 79, 1-(3-((1-(isopropylsulfonyl)-2,3-dihydro-1H-pyrido[2,3-b][1,4]oxazin-7-yl)amino)-5H-chromeno[4,3-c]pyridin-8-yl)pyrrolidin-2-one] | 10 to 100 nM | ≤ 1 nM | 1 to 10 nM
7 | CC1Oc2cc(N3CCCC3=O)ccc2-c2cnc(Nc3cncnc3)cc21 (stereo not drawn) [Example 80, 1-(5-methyl-3-(pyrimidin-5-ylamino)-5H-chromeno[4,3-c]pyridin-8-yl)pyrrolidin-2-one] | 100 to 1000 nM | 10 to 100 nM | 10 to 100 nM
8 | CC1Oc2cc(N3CCCC3=O)ccc2-c2cnc(Nc3cncc(C(F)(F)F)c3)cc21 (stereo not drawn) [Example 81, 1-(5-methyl-3-((5-(trifluoromethyl)pyridin-3-yl)amino)-5H-chromeno[4,3-c]pyridin-8-yl)pyrrolidin-2-one] | > 1000 nM | 10 to 100 nM | 100 to 1000 nM
9 | CC1Oc2cc(N3CCCC3=O)ccc2-c2cnc(Nc3cnc4c(c3)N(C(=O)C3CC3)CCO4)cc21 (stereo not drawn) [Example 82, 1-(3-((1-(cyclopropanecarbonyl)-2,3-dihydro-1H-pyrido[2,3-b][1,4]oxazin-7-yl)amino)-5-methyl-5H-chromeno[4,3-c]pyridin-8-yl)pyrrolidin-2-one] | 1 to 10 nM | ≤ 1 nM | ≤ 1 nM
10 | COC(=O)N1CCOc2ncc(Nc3cc4c(cn3)-c3ccc(N5CCCC5=O)cc3OC4C)cc21 (stereo not drawn) [Example 83, methyl 7-((5-methyl-8-(2-oxopyrrolidin-1-yl)-5H-chromeno[4,3-c]pyridin-3-yl)amino)-2,3-dihydro-1H-pyrido[2,3-b][1,4]oxazine-1-carboxylate] | 1 to 10 nM | ≤ 1 nM | ≤ 1 nM
11 | CC(C)C(=O)N1CCOc2ncc(Nc3cc4c(cn3)-c3ccc(N5CCCC5=O)cc3OC4C)cc21 (stereo not drawn) [Example 84, 1-(3-((1-isobutyryl-2,3-dihydro-1H-pyrido[2,3-b][1,4]oxazin-7-yl)amino)-5-methyl-5H-chromeno[4,3-c]pyridin-8-yl)pyrrolidin-2-one] | 1 to 10 nM | ≤ 1 nM | ≤ 1 nM
12 | CC1Oc2cc(N3CCCC3=O)ccc2-c2cnc(Nc3cnc4c(c3)N(S(=O)(=O)C(C)C)CCO4)cc21 (stereo not drawn) [Example 85, 1-(3-((1-(isopropylsulfonyl)-2,3-dihydro-1H-pyrido[2,3-b][1,4]oxazin-7-yl)amino)-5-methyl-5H-chromeno[4,3-c]pyridin-8-yl)pyrrolidin-2-one] | 10 to 100 nM | ≤ 1 nM | 1 to 10 nM
13 | CC1Oc2cc(N3CCCC3=O)ccc2-c2cnc(Nc3cnc4c(c3)N(C(=O)C(C)(C)C)CCO4)cc21 (stereo not drawn) [Example 86, 1-(5-methyl-3-((1-pivaloyl-2,3-dihydro-1H-pyrido[2,3-b][1,4]oxazin-7-yl)amino)-5H-chromeno[4,3-c]pyridin-8-yl)pyrrolidin-2-one] | 1 to 10 nM | ≤ 1 nM | ≤ 1 nM
14 | COc1ncc(Nc2cc3c(cn2)-c2ccc(N4CCCC4=O)cc2OC3C)cc1NC(C)=O (stereo not drawn) [Example 87, N-(2-methoxy-5-((5-methyl-8-(2-oxopyrrolidin-1-yl)-5H-chromeno[4,3-c]pyridin-3-yl)amino)pyridin-3-yl)acetamide] | 10 to 100 nM | 1 to 10 nM | 1 to 10 nM
15 | COc1ncc(Nc2cc3c(cn2)-c2ccc(N4CCCC4=O)cc2OC3C)cc1NS(C)(=O)=O (stereo not drawn) [Example 88, N-(2-methoxy-5-((5-methyl-8-(2-oxopyrrolidin-1-yl)-5H-chromeno[4,3-c]pyridin-3-yl)amino)pyridin-3-yl)methanesulfonamide] | 10 to 100 nM | 1 to 10 nM | 1 to 10 nM
16 | COc1ncc(Nc2cc3c(cn2)-c2ccc(N4CCCC4=O)cc2OC3C)cc1N(C)C(C)=O (stereo not drawn) [Example 89, N-(2-methoxy-5-((5-methyl-8-(2-oxopyrrolidin-1-yl)-5H-chromeno[4,3-c]pyridin-3-yl)amino)pyridin-3-yl)-N-methylacetamide] | > 1000 nM | 100 to 1000 nM | 100 to 1000 nM
17 | COc1ncc(Nc2cc3c(cn2)-c2ccc(N4CCCC4=O)cc2OC3C)cc1N(C)S(C)(=O)=O (stereo not drawn) [Example 90, N-(2-methoxy-5-((5-methyl-8-(2-oxopyrrolidin-1-yl)-5H-chromeno[4,3-c]pyridin-3-yl)amino)pyridin-3-yl)-N-methylmethanesulfonamide] | 100 to 1000 nM | 1 to 10 nM | 10 to 100 nM
18 | CC1Oc2cc(N3CCCC3=O)ccc2-c2cnc(Nc3cncc(S(C)(=O)=O)c3)cc21 (stereo not drawn) [Example 91, 1-(5-methyl-3-((5-(methylsulfonyl)pyridin-3-yl)amino)-5H-chromeno[4,3-c]pyridin-8-yl)pyrrolidin-2-one] | > 1000 nM | 10 to 100 nM | 10 to 100 nM
19 | CC1Oc2cc(N3CCCC3=O)ccc2-c2cnc(Nc3cnc4c(c3)NC(=O)CO4)cc21 (stereo not drawn) [Example 93, 7-((5-methyl-8-(2-oxopyrrolidin-1-yl)-5H-chromeno[4,3-c]pyridin-3-yl)amino)-1H-pyrido[2,3-b][1,4]oxazin-2(3H)-one] | 100 to 1000 nM | 1 to 10 nM | 10 to 100 nM
20 | CC1Oc2cc(N3CCCC3=O)ccc2-c2cnc(Nc3cnc4c(c3)NCCO4)cc21 (stereo not drawn) [Example 94, 1-(3-((2,3-dihydro-1H-pyrido[2,3-b][1,4]oxazin-7-yl)amino)-5-methyl-5H-chromeno[4,3-c]pyridin-8-yl)pyrrolidin-2-one] | 10 to 100 nM | 1 to 10 nM | 1 to 10 nM
